From PubChem BioAssay (NCI)
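48-hour exposure; five concentrations; linearly interpolated endpoints. GI50 is the concentration that inhibits growth by half. The concentration for full growth arrest is given as TGI.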 Where a SMILES comes first, the peptide text is derived from it. [ ]: non-standard residue; d: D form.

Columns and labels:
Experiment in all cases: inhibition of tumour cell growth, NCI panel, 48 h
[1] = system: COLO 205 colon
[2] = system: EKVX NSCLC
[3] = system: M14 melanoma
[4] = system: MOLT-4 leukemia
[5] = system: NCI-H522 lung
[6] = system: SF-295 CNS
[7] = system: SN12C renal
[8] = system: U251 CNS
[9] = system: UACC-62 melanoma
[10] = system: CCRF-CEM leukemia

`COc1ccc(/C=C2/CSC/C(=C/c3ccc(OC)c(OC)c3)C2=O)cc1OC` was tested, and the TGI [1] was 6.28 µM, the TGI [2] was 42.8 µM and the TGI [3] was 10.5 µM. It also gave a TGI [4] greater than 20.9 µM, a TGI [5] of 5.83 µM and a TGI [6] of 16.3 µM. For the same molecule, the TGI [7] was 4.13 µM, the TGI [8] was 2.72 µM and the TGI [9] was 3.32 µM.
In the case of `CC(=O)/C(=C/N1CCN(C(=O)c2ccco2)C1=S)C(=O)c1ccccc1`, the GI50 [1] is reported as 16.5 µM, the TGI [1] is reported as 45.1 µM and the GI50 [2] is reported as 7.9 µM. It also gave a TGI [2] of 21.3 µM, a GI50 [3] of 6.32 µM and a TGI [3] of 13.1 µM. The GI50 [4] was 15.9 µM, the TGI [4] was greater than 50 µM and the GI50 [6] was 19.3 µM. It also gave a TGI [6] greater than 50 µM, a GI50 [7] of 7.65 µM and a TGI [7] of 15.2 µM. For the same molecule, the GI50 [8] was 13.4 µM, the TGI [8] was greater than 50 µM and the GI50 [9] was 7.33 µM. The TGI [9] was 16.9 µM.
`O=C1C(=Cc2ccc(F)cc2)C(=O)c2ccccc21` was tested, and the TGI [10] was greater than 100 µM, the TGI [1] was greater than 100 µM and the TGI [2] was greater than 100 µM. The TGI [3] was greater than 100 µM, the TGI [4] was greater than 100 µM and the TGI [5] was greater than 100 µM. For the same molecule, the TGI [6] was greater than 100 µM, the TGI [8] was greater than 100 µM and the TGI [9] was greater than 100 µM.
`N#CNC1=NCCC(=O)N1CCc1c[nH]c2ccccc12` gave a TGI [10] greater than 100 µM, a TGI [1] greater than 100 µM and a TGI [2] greater than 100 µM. It also gave a TGI [3] greater than 100 µM, a TGI [4] greater than 100 µM and a TGI [6] greater than 100 µM. For the same molecule, the TGI [7] was greater than 100 µM and the TGI [9] was greater than 100 µM.
`CC1OC(=O)N2CCC=CC12` (stereo not drawn) gave a TGI [10] greater than 100 µM, a TGI [1] greater than 100 µM and a TGI [2] greater than 100 µM. For the same molecule, the TGI [4] was greater than 100 µM, the TGI [5] was greater than 100 µM and the TGI [6] was greater than 100 µM. It also gave a TGI [7] greater than 100 µM, a TGI [8] greater than 100 µM and a TGI [9] greater than 100 µM.
`CSCC[C@H](NC(=O)[C@@H](N)CC(N)=O)C(=O)N[C@@H](Cc1c[nH]c2ccccc12)C(=O)N[C@@H](CCC(N)=O)C(=O)N[C@@H](CCC(=O)O)C(=O)N[C@H](C(=O)NCC(=O)N[C@@H](CCCCN)C(=O)N[C@H](C)C(=O)O)C(C)C` (H-NMWQEVGK[dA]-OH) was tested, and the TGI [10] was greater than 100 µM, the TGI [1] was greater than 100 µM and the TGI [2] was greater than 100 µM. For the same molecule, the TGI [3] was greater than 100 µM, the TGI [4] was greater than 100 µM and the TGI [6] was greater than 100 µM. It also gave a TGI [7] greater than 100 µM, a TGI [8] greater than 100 µM and a TGI [9] greater than 100 µM.
`COc1ccc2c(c1)C=CC1C2CC[C@]2(C)C(NC(=O)/C=C/c3ccc(O)c(O)c3)CCC12` (stereo partly drawn) was tested, and the GI50 [10] was 4.36 µM, the TGI [10] was 19.5 µM and the GI50 [1] was 2.61 µM. For the same molecule, the TGI [1] was 7.75 µM, the GI50 [2] was 18.8 µM and the TGI [2] was 56.5 µM. The GI50 [3] was 13.7 µM, the TGI [3] was 30.8 µM and the GI50 [4] was 5.56 µM. It also gave a TGI [4] of 22.7 µM, a GI50 [5] of 3.41 µM and a TGI [5] of 10.9 µM. The GI50 [6] was 31.7 µM, the TGI [6] was 70.3 µM and the GI50 [7] was 13.6 µM. For the same molecule, the TGI [7] was 32.2 µM, the GI50 [9] was 14.9 µM and the TGI [9] was 30.8 µM.
Molecule `C1CC[N-]CC1.CC(=N\O)/C(C)=N/O.CC(=N\O)/C(C)=N/O.C[CH-]C(C)O.[Co+2]` has a GI50 [1] of 14.9 µM, a TGI [1] of 29 µM and a GI50 [2] of 35.7 µM. It also gave a TGI [2] greater than 100 µM, a GI50 [3] of 20.8 µM and a TGI [3] of 45.1 µM. For the same molecule, the GI50 [4] was 17.4 µM, the TGI [4] was 42.2 µM and the GI50 [5] was 10.3 µM. For the same molecule, the TGI [5] was 22 µM, the GI50 [6] was 88.5 µM and the TGI [6] was greater than 100 µM. The GI50 [7] was 40.1 µM, the TGI [7] was greater than 100 µM and the GI50 [8] was 17.7 µM. For the same molecule, the TGI [8] was 31.5 µM, the GI50 [9] was 15.6 µM and the TGI [9] was 29 µM.
`CC(=O)OC1=C(CC(C)(C)C)C(=O)c2ccccc2C1=O` showed a TGI [10] of 55.6 µM, a TGI [1] of 72.5 µM and a TGI [2] greater than 100 µM. The TGI [3] was greater than 100 µM, the TGI [6] was 70.4 µM and the TGI [8] was greater than 100 µM. For the same molecule, the TGI [9] was greater than 100 µM.
